Results: patent US12691112B2, “FGFR tyrosine kinase inhibitors for the treatment of urothelial carcinoma” (Janssen Pharmaceutica NV, priority 2019, dated 2026)
Where two headings read alike, the source gives them in different places.

System: metastatic or surgically unresectable urothelial cancer harboring select FGFR genetic alterations
Conditions: chemo relapsed/refractory
Description: The study comprises a Screening Phase (molecular screening at any time prior to first dose and study screening within 30 days of first dose), a treatment phase, and a post-treatment follow-up phase. The treatment phase comprises the period from first dose until the end-of-treatment visit. The follow-up phase extends until the subject has died, withdraws consent, is lost to follow-up, or the end of study, whichever comes first.
Included patients were adults with measurable urothelial cancer per Response Evaluation Criteria in Solid Tumors version 1.1.
Patients were required to have at least 1 FGFR2/FGFR3 mutation or fusion per central lab testing of RNA from formalin-fixed, paraffin-embedded tumor samples, using a custom reverse transcriptase polymerase chain reaction assay.
Patients were contacted every 12 weeks for survival assessment.
The study was designed to enroll 180 patients with specified FGFR alterations. Of these, ≥88 were required in the selected regimen. […] Responses were assessed by investigators and an independent radiological review committee. Progression-free survival and overall survival were estimated using Kaplan-Meier product limit method. Data from patients who were progression free and alive or with unknown status were censored at last tumor assessment. Efficacy end points were analysed at primary analysis cut-off.

[1] = 6 mg QD, Any FGFR alterations, n=73
[2] = 6 mg QD, FGFR fusions (excluding mutations), 2 responders
[3] = 6 mg QD, FGFR fusions (excluding mutations), n=10
[4] = 6 mg QD, FGFR mutations (excluding fusions), 22 responders
[5] = 6 mg QD, FGFR mutations (excluding fusions), n=59
[6] = 6 mg QD, FGFR mutations and fusions, 3 responders
[7] = 6 mg QD, FGFR mutations and fusions, n=4
[8] = 6 mg QD, Fusion: FGFR2-CASP7/FGFR3-BAIAP2L1, n=1
[9] = 6 mg QD, Mutation and fusion: FGFR3-G370C/FGFR2-BICC1, n=1
[10] = 6 mg QD, Mutation and fusion: FGFR3-G370C/FGFR3-TACC3 V1, n=1
[11] = 6 mg QD, Mutation and fusion: FGFR3-R248C/FGFR3-S249C/FGFR3-TACC3 V1, n=1
[12] = 6 mg QD, Mutation and fusion: FGFR3-R248C/FGFR3-TACC3 V1, n=1
[13] = 6 mg QD, Mutation: FGFR3-G370C/FGFR3-S249C, n=1
[14] = 6 mg QD, Mutation: FGFR3-R248C/FGFR3-Y373C, n=1
[15] = 8 mg QD, Any FGFR alterations, n=87
[16] = 8 mg QD, FGFR fusions (excluding mutations), 4 responders
[17] = 8 mg QD, FGFR fusions (excluding mutations), n=23
[18] = 8 mg QD, FGFR mutations (excluding fusions), 31 responders
[19] = 8 mg QD, FGFR mutations (excluding fusions), n=64
[20] = 8 mg QD, Fusion: FGFR2-CASP7/FGFR3-TACC3 V3, n=1
[21] = 10 mg 7 on/7 off, Any FGFR alterations, n=29
[22] = 10 mg 7 on/7 off, FGFR fusions (excluding mutations), n=2
[23] = 10 mg 7 on/7 off, FGFR mutations (excluding fusions), 5 responders
[24] = 10 mg 7 on/7 off, FGFR mutations (excluding fusions), n=24
[25] = 10 mg 7 on/7 off, FGFR mutations and fusions, 1 responder
[26] = 10 mg 7 on/7 off, FGFR mutations and fusions, n=3
[27] = 10 mg 7 on/7 off, Mutation and fusion: FGFR3-R248C/FGFR3-TACC3 V1, n=1
[28] = 10 mg 7 on/7 off, Mutation and fusion: FGFR3-S249C/FGFR3-BAIAP2L1, n=1
[29] = 10 mg 7 on/7 off, Mutation and fusion: FGFR3-S249C/FGFR3-Y373C/FGFR2-CASP7/FGFR3-BAIAP2L1/FGFR3-TACC3 V1/FGFR3-TACC3 V3, n=1

COc1cc(OC)cc(N(CCNC(C)C)c2ccc3ncc(-c4cnn(C)c4)nc3c2)c1 [erdafitinib, N-(3,5-dimethoxy-phenyl)-N′-(1-methylethyl)-N-[3-(1-methyl-1H-pyrazol-4-yl)quinoxalin-6-yl]ethane-1,2-diamine]
Confirmed complete response (CR) [1]: 3 (4.1%) | Confirmed partial response (PR) [1]: 24 (32.9%) | Disease control rate (CR + PR + SD) [1]: 55 (75.3%) | Inevaluable [1]: 4 (5.5%) | Progressive disease (PD) [1]: 14 (19.2%) | 6-month progression-free survival rate (95% CI), among responders [2]: 0.50 (0.01, 0.91) | 9-month progression-free survival rate (95% CI), among responders [2]: 0.50 (0.01, 0.91) | 12-month progression-free survival rate (95% CI), among responders [2]: 0.50 (0.01, 0.91) | Confirmed complete response (CR) [3]: 0% | Confirmed partial response (PR) [3]: 2 (20.0%) | Disease control rate (CR + PR + SD) [3]: 9 (90.0%) | Inevaluable [3]: 1 (10.0%) | Objective response rate (CR + PR) [3]: 2 (20.0%) | Progressive disease (PD) [3]: 0% | 6-month progression-free survival rate (95% CI), among responders [4]: 0.41 (0.21, 0.60) | 9-month progression-free survival rate (95% CI), among responders [4]: 0.27 (0.11, 0.46) | 12-month progression-free survival rate (95% CI), among responders [4]: 0.18 (0.06, 0.36) | Confirmed complete response (CR) [5]: 2 (3.4%) | Confirmed partial response (PR) [5]: 20 (33.9%) | Disease control rate (CR + PR + SD) [5]: 43 (72.9%) | Inevaluable [5]: 2 (3.4%) | Objective response rate (CR + PR) [5]: 22 (37.3%) | Progressive disease (PD) [5]: 14 (23.7%) | 6-month progression-free survival rate (95% CI), among responders [6]: 0.67 (0.05, 0.95) | 9-month progression-free survival rate (95% CI), among responders [6]: 0.67 (0.05, 0.95) | 12-month progression-free survival rate (95% CI), among responders [6]: 0.33 (0.01, 0.77) | Confirmed complete response (CR) [7]: 1 (25.0%) | Confirmed partial response (PR) [7]: 2 (50.0%) | Disease control rate (CR + PR + SD) [7]: 3 (75.0%) | Inevaluable [7]: 1 (25.0%) | Objective response rate (CR + PR) [7]: 3 (75.0%) | Progressive disease (PD) [7]: 0% | Confirmed complete response (CR) [8]: 0% | Confirmed partial response (PR) [8]: 0% | Disease control rate (CR + PR + SD) [8]: 1 (100.0%) | Inevaluable [8]: 0% | Objective response rate (CR + PR) [8]: 0% | Progressive disease (PD) [8]: 0% | Confirmed complete response (CR) [9]: 1 (100.0%) | Confirmed partial response (PR) [9]: 0% | Disease control rate (CR + PR + SD) [9]: 1 (100.0%) | Inevaluable [9]: 0% | Objective response rate (CR + PR) [9]: 1 (100.0%) | Progressive disease (PD) [9]: 0% | Confirmed complete response (CR) [10]: 0% | Confirmed partial response (PR) [10]: 1 (100.0%) | Disease control rate (CR + PR + SD) [10]: 1 (100.0%) | Inevaluable [10]: 0% | Objective response rate (CR + PR) [10]: 1 (100.0%) | Progressive disease (PD) [10]: 0% | Confirmed complete response (CR) [11]: 0% | Confirmed partial response (PR) [11]: 1 (100.0%) | Disease control rate (CR + PR + SD) [11]: 1 (100.0%) | Inevaluable [11]: 0% | Objective response rate (CR + PR) [11]: 1 (100.0%) | Progressive disease (PD) [11]: 0% | Confirmed complete response (CR) [12]: 0% | Confirmed partial response (PR) [12]: 0% | Disease control rate (CR + PR + SD) [12]: 0% | Inevaluable [12]: 1 (100.0%) | Objective response rate (CR + PR) [12]: 0% | Progressive disease (PD) [12]: 0% | Confirmed complete response (CR) [13]: 0% | Confirmed partial response (PR) [13]: 0% | Disease control rate (CR + PR + SD) [13]: 1 (100.0%) | Inevaluable [13]: 0% | Objective response rate (CR + PR) [13]: 0% | Progressive disease (PD) [13]: 0% | Confirmed complete response (CR) [14]: 0% | Confirmed partial response (PR) [14]: 1 (100.0%) | Disease control rate (CR + PR + SD) [14]: 1 (100.0%) | Inevaluable [14]: 0% | Objective response rate (CR + PR) [14]: 1 (100.0%) | Progressive disease (PD) [14]: 0% | Disease control rate (CR + PR + SD) [15]: 69 (79.3%) | Inevaluable [15]: 2 (2.3%) | Progressive disease (PD) [15]: 16 (18.4%) | 6-month progression-free survival rate (95% CI), among responders [16]: 0.50 (0.06, 0.84) | 9-month progression-free survival rate (95% CI), among responders [16]: 0.50 (0.06, 0.84) | Confirmed complete response (CR) [17]: 0% | Confirmed partial response (PR) [17]: 4 (17.4%) | Disease control rate (CR + PR + SD) [17]: 15 (65.2%) | Inevaluable [17]: 1 (4.3%) | Progressive disease (PD) [17]: 7 (30.4%) | 6-month progression-free survival rate (95% CI), among responders [18]: 0.42 (0.24, 0.59) | 9-month progression-free survival rate (95% CI), among responders [18]: 0.19 (0.07, 0.37) | 12-month progression-free survival rate (95% CI), among responders [18]: 0.19 (0.07, 0.37) | Confirmed complete response (CR) [19]: 3 (4.7%) | Confirmed partial response (PR) [19]: 28 (43.8%) | Disease control rate (CR + PR + SD) [19]: 54 (84.4%) | Inevaluable [19]: 1 (1.6%) | Progressive disease (PD) [19]: 9 (14.1%) | Confirmed complete response (CR) [20]: 0% | Confirmed partial response (PR) [20]: 0% | Disease control rate (CR + PR + SD) [20]: 0% | Inevaluable [20]: 1 (100.0%) | Objective response rate (CR + PR) [20]: 0% | Progressive disease (PD) [20]: 0% | Confirmed complete response (CR) [21]: 1 (3.4%) | Confirmed partial response (PR) [21]: 5 (17.2%) | Disease control rate (CR + PR + SD) [21]: 23 (79.3%) | Inevaluable [21]: 2 (6.9%) | Progressive disease (PD) [21]: 4 (13.8%) | Confirmed complete response (CR) [22]: 0% | Confirmed partial response (PR) [22]: 0% | Disease control rate (CR + PR + SD) [22]: 1 (50.0%) | Inevaluable [22]: 0% | Objective response rate (CR + PR) [22]: 0% | Progressive disease (PD) [22]: 1 (50.0%) | 6-month progression-free survival rate (95% CI), among responders [23]: 0.80 (0.20, 0.97) | 9-month progression-free survival rate (95% CI), among responders [23]: 0.80 (0.20, 0.97) | 12-month progression-free survival rate (95% CI), among responders [23]: 0.60 (0.13, 0.88) | Confirmed complete response (CR) [24]: 1 (4.2%) | Confirmed partial response (PR) [24]: 4 (16.7%) | Disease control rate (CR + PR + SD) [24]: 20 (83.3%) | Inevaluable [24]: 2 (8.3%) | Objective response rate (CR + PR) [24]: 5 (20.8%) | Progressive disease (PD) [24]: 2 (8.3%) | 6-month progression-free survival rate (95% CI), among responders [25]: 0 (NE, NE) | 9-month progression-free survival rate (95% CI), among responders [25]: 0 (NE, NE) | 12-month progression-free survival rate (95% CI), among responders [25]: 0 (NE, NE) | Confirmed complete response (CR) [26]: 0% | Confirmed partial response (PR) [26]: 1 (33.3%) | Disease control rate (CR + PR + SD) [26]: 2 (66.7%) | Inevaluable [26]: 0% | Objective response rate (CR + PR) [26]: 1 (33.3%) | Progressive disease (PD) [26]: 1 (33.3%) | Confirmed complete response (CR) [27]: 0% | Confirmed partial response (PR) [27]: 1 (100.0%) | Disease control rate (CR + PR + SD) [27]: 1 (100.0%) | Inevaluable [27]: 0% | Objective response rate (CR + PR) [27]: 1 (100.0%) | Progressive disease (PD) [27]: 0% | Confirmed complete response (CR) [28]: 0% | Confirmed partial response (PR) [28]: 0% | Disease control rate (CR + PR + SD) [28]: 0% | Inevaluable [28]: 0% | Objective response rate (CR + PR) [28]: 0% | Progressive disease (PD) [28]: 1 (100.0%) | Confirmed complete response (CR) [29]: 0% | Confirmed partial response (PR) [29]: 0%
